Earlier results on two molecules are cited in US20110061649A1, “DEVICE AND METHOD FOR TREATING RESPIRATORY AND OTHER DISEASES” (priority 2007, published 2011).

Structures are written as SMILES. “Also recorded” adds a separate entry of the source. Like-named read-outs stand apart in the source and are kept apart here.

Data set [1] concerns alcohol dehydrogenases.
Data set [2] has as its system methicillin-resistant staphylococcus aureus. The conditions noted are these: allicin formulated into creams and soap.
The test system of data set [3] is mammals cells.
For data set [4] the following is noted: for storage without losing effectiveness / beneficial properties: Weizmann Institute article.
Data set [5] deals with vancomycin-resistant enterococci. The following applies: allicin formulated into creams and soap.
In data set [6] the test system is cysteine proteinases.

With `C=CCS[S+]([O-])CC=C` (centres unmarked) [allicin], the “blocking of alcohol dehydrogenases” value in data set [1] is listed as “blocking”. Besides, the “killing of methicillin-resistant staphylococcus aureus” value in data set [2] is listed as “killing”. For the same molecule, the “level of allicin to which mammals cells proved to be immune” value in data set [3] is recorded as 50 Mm. For the same molecule, the results for the life span result in data set [4] (room temperature) and in data set [4] (temperature not stated) were “less than an our; also recorded: about an hour” and “few hours”, respectively. In data set [4] (listed as natural compound), the “storage without losing effectiveness / beneficial properties” value is “loses its beneficial properties within hours”. In data set [4] (temperature of 4° Celsius), the preserved stable result is on record as “stable for months”. In addition, in data set [5], the “killing of vancomycin-resistant enterococci” value was “killing”. The figures for the “blocking of cysteine proteinases” value in data set [6] and in data set [6] (listed as Allicin) were “blocking” and “Strongly Inhibits”, respectively.
Regarding `C=CCS[S+]([O-])CC=C` (centres unmarked) [pure semi-synthetic allicin, allicin], the “storage without losing effectiveness / beneficial properties” value in data set [4] is recorded as “stored for months without losing its effectiveness”.
